Where two headings read alike, the source gives them in different places. Marks after values point to notes of the source that are not given here.
Legend:
JAK3 JH1 kinase = JAK3 JH1 kinase (Homo sapiens, UniProt P52333); test: JAK3 JH1 enzyme assay in vitro (TR-FRET); type: biochemical
SD rats = test: Four-week repeat-dose toxicity study in rats; type: in vivo; conditions: rat, 28 days, po bid, 50 mg/kg
Experimental: Each group contained 10 animals, with an equal number of males and females.
The treatment lasted for four consecutive weeks (28 days).
• Daily clinical observation and body weight measurement; • After the last administration, rats were fasted for more than 16 h, anesthetized on the next day, and blood was collected from abdominal aorta. Tests such as hematology (EDTA-2K anticoagulation), blood biochemistry (serum), coagulation function (separated plasma with sodium citrate anticoagulation) and the like were respectively carried out; • After euthanization of the animals, the tissue organs were dissected and observed in general, and organ weights and coefficients (heart, liver, spleen, kidney, thymus) were determined; • The skin and lung tissues of the administration site were taken for HE staining to observe the changes in epidermal thickness, dermal inflammatory cells and pulmonary lesions.

[1] = test system: imiquimod-induced mouse psoriasis-like model; test: Imiquimod-induced mouse psoriasis-like model (PASI score); type: in vivo; conditions: bid
[2] = molecular target: Ba/F3 cell line expressing TYK2 (Homo sapiens, UniProt P29597, cells depend on it, form not given); test: In vitro cellular inhibition assay (Ba/F3 cell proliferation, CellTiter-Glo); type: cell-based; conditions: read-out: IC50 (the source's name)
How it was run: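 Ba/F3 cells dependent on TYK2 were exposed to serially diluted compound, then viability was read by CellTiter-Glo luminescence. Inhibition (%) was calculated from RLU relative to max and min controls, and IC50 was obtained by curve fitting.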

hERG channel = molecular target: T1, hERG channel (Homo sapiens, UniProt Q12809); test: hERG potassium channel inhibition assay (manual patch clamp); type: cell-based; conditions: HEK-293 cell line stably expressing hERG channel, at the tested concentrations
T1 construct: expressed in transfected cells; host or cells: HEK-293
T1 sequence (Q12809 whole entry): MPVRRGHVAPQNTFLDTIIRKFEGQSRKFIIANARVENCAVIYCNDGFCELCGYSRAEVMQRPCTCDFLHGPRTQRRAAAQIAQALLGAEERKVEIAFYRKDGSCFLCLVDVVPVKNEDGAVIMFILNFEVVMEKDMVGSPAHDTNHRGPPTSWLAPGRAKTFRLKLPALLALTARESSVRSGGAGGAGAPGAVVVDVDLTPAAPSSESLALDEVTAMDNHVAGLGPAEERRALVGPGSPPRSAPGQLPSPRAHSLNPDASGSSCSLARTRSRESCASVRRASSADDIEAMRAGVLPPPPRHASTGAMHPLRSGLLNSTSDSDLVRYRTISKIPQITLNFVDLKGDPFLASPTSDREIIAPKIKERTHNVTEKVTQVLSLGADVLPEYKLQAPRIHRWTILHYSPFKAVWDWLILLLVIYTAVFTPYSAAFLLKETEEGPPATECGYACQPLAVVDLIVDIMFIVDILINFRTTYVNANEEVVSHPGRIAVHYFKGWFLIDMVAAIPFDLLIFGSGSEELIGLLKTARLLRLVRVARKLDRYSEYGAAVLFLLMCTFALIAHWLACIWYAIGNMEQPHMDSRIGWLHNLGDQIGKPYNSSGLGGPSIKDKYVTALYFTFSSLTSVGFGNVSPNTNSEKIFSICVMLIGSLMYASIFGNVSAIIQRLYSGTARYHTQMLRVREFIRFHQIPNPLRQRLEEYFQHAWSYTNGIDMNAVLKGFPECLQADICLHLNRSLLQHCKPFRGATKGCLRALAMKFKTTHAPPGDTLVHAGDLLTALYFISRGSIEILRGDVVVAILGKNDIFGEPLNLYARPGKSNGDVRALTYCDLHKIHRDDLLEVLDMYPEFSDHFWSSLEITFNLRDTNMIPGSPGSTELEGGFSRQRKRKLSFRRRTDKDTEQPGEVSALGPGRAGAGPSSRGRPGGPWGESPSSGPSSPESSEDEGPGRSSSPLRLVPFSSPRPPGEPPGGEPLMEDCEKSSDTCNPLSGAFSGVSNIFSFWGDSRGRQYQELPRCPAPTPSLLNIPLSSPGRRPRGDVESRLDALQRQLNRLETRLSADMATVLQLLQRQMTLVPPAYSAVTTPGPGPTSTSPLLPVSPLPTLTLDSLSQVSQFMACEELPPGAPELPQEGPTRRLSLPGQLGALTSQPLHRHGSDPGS
Experimental: Instrumentation: HEKA EPC 10 patch clamp amplifier.
Method: in this experiment, the blocking effect of the compounds on the current of the HEK-293 cell line stably expressing hERG channel was measured using the manual patch clamp technique, and the risk of the compounds on the inhibition of cardiac hERG potassium channel was assessed by fitting the concentration effect relationship.
Procedure: in the patch clamp operation, firstly, a capillary glass tube was pulled into a recording electrode using a microelectrode puller, then an electrode filled with intracellular solution was mounted into a microelectrode holder. A microelectrode manipulator was operated under an inverted microscope to immerse the electrode into an extracellular solution and the electrode resistance (Rpip) was recorded. Then, the electrode was slowly brought into contact with the cell surface, and a negative pressure was applied for suction to form a GΩ seal. At this point, a fast capacitance compensation was performed, and a negative pressure was continuously applied to suck and break the cell membrane to form a whole cell recording mode. Finally, a slow capacitance compensation was performed and experimental parameters including series resistance (Rs) and the like were recorded. No leakage compensation was performed. When the hERG current recorded by the whole cell was stable, the administration of drugs commenced, and each drug concentration acted for about 5 min (or until the current stabilization) before detecting the next concentration. A cover glass covered with cells was placed in a recording bath under an inverted microscope, the blank control extracellular solution and the working solution of the compounds to be tested sequentially flowed through the recording bath from low concentration to high concentration by using gravity perfusion to act on the cells, and solution exchange was performed using a peristaltic pump during recording. The current measured by each cell in the extracellular solution without the compound served as its own control group. Each concentration was independently assessed twice. All electrophysiological tests were performed at room temperature.
Data Analysis: firstly, the tail current (Peak tail currentcompound) after the action of each drug concentration and the blank control tail current (Peak tail currentcontrol) were normalized, then the inhibition rate
corresponding to each drug concentration was calculated, and the mean (Mean), standard deviation (SD) and standard error (SE) of the inhibition rate corresponding to each concentration were calculated, with data expressed as Mean±SE. The calculation of IC50 value and the fitting of dose-response curve for the compound were performed using GraphPad Prism software.

TYK2 JH2 pseudokinase = TYK2 JH2 pseudokinase (Homo sapiens, UniProt P29597); test: TYK2 JH2 enzyme binding assay in vitro (TR-FRET)
Sequence of TYK2 JH2 pseudokinase (P29597 589-875 limits assumed): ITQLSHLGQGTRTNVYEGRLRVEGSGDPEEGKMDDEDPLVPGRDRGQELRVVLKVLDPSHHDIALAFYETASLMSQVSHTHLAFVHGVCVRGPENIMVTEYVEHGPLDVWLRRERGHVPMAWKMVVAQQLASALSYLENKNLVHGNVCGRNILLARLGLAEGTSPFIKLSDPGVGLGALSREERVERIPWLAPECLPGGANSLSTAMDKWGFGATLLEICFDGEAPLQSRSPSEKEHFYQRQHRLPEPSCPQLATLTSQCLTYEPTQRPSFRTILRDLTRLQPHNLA
Experimental: Instrumentation: Envision microplate reader (PerkinElmer), ECHO550 (LABCYTE).
Method: the inhibitory effects of compounds on TYK2 JH2 pseudokinase was tested using time-resolved fluorescence resonance energy transfer (TR-FRET) method.
Procedure: compounds were prepared into 10 mM stock solutions using DMSO, which were further diluted into compound dilutions (200×) with different concentration gradients in DMSO, and the compound dilutions (200×) were transferred to a 384-well assay plate using an Echo instrument. […] TYK2 JH2 pseudokinase, Tb antibody, and Tracer working solutions were prepared using the dilution buffer, respectively. 5 uL of TYK2 JH2 pseudokinase working solution (final concentration 0.5 nM) was added to a 384-well assay plate, and centrifuged at 1000 rpm for 30 s. 5 uL of Tb antibody (final concentration 1×) was added to the 384-well assay plate, and centrifuged at 1000 rpm for 30 s. 5 uL of Tracer (final concentration 0.5 nM) was added to the 384-well assay plate, and centrifuged at 1000 rpm for 30 s. Incubation was performed at room temperature for 60 min, and then at 4° C. overnight.
Data Analysis: XLfit, a software developed by IDBS and integrated into the Microsoft Excel environment, was used to process and analyze the test data.

JAK1 JH2 pseudokinase = JAK1 JH2 pseudokinase (Homo sapiens, UniProt P23458); test: JAK1 JH2 enzyme binding assay in vitro (TR-FRET); conditions: read-out: JAK 1 JH2 IC50
Sequence of JAK1 JH2 pseudokinase (P23458 583-855 limits assumed): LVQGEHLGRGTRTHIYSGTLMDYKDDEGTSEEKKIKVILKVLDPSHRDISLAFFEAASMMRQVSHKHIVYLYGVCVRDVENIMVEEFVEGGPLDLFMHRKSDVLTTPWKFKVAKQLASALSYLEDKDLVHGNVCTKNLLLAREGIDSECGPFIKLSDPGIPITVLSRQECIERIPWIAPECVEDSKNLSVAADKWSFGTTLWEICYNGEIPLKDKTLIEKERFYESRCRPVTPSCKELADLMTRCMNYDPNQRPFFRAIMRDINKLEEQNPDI
Experimental: Instrumentation: Envision microplate reader (PerkinElmer), Echo (LABCYTE)
Method: in this experiment, the inhibitory effects of compounds on JAK1 JH2 pseudokinase was tested using time-resolved fluorescence resonance energy transfer (TR-FRET) method.
Procedure: compounds were prepared into 10 mM stock solutions using DMSO, which were further diluted into compound dilutions with different concentration gradients in DMSO, and the compound dilutions with 200× final concentration were transferred to a 384-well assay plate using an Echo instrument. The preparation of the following 1× assay working solution: HEPES pH7.5 at a final concentration of 20 mM, MgCl2 at a final concentration of 10 mM, Brij-35 at a final concentration of 0.015%, DTT at a final concentration of 2 mM, BSA at a final concentration of 50 ug/mL. JAK1 JH2 pseudokinase with 3× final concentration, Tb antibody and Tracer were prepared using their respective 1× working solution. 5 uL of JAK1 JH2 pseudokinase was added to a 384-well assay plate, and centrifuged at 1000 rpm for 30 s. 5 uL of Tb antibody was added to the 384-well assay plate, and centrifuged at 1000 rpm for 30 s. 5 uL of Tracer was added to the 384-well assay plate, and centrifuged at 1000 rpm for 30 s. Incubation was performed at room temperature for 60 min, and then at 4° C. overnight. Finally, the 495 nm/520 nm fluorescence signal ratio was measured using the Envision microplate reader (PerkinElmer).
Data Analysis: XLfit, a software developed by IDBS and integrated into the Microsoft Excel environment, was used to process and analyze the test data. […] Thereafter, the concentration and corresponding inhibition rate data were imported into the XLfit software, and the Dose Response One Site 205 model within the software was employed to fit the inhibition rate-concentration curve by four-parameter method, and the IC50 value of the compound was calculated.

JAK1 JH1 kinase = JAK1 JH1 kinase (Homo sapiens, UniProt P23458); test: JAK1 JH1 enzyme assay in vitro (TR-FRET); type: biochemical; conditions: read-out: JAK 1 JH1 IC50
Sequence of JAK1 JH1 kinase (P23458 875-1153 limits assumed): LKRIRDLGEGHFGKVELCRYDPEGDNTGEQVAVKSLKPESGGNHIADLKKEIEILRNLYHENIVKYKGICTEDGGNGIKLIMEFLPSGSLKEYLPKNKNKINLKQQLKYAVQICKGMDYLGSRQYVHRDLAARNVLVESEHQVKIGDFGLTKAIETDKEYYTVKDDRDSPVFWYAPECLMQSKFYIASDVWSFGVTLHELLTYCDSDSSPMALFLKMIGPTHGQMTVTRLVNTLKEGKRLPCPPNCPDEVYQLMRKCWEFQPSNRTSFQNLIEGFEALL

JAK2 JH1 kinase = JAK2 JH1 kinase (Homo sapiens, UniProt O60674); test: JAK2 JH1 enzyme assay in vitro (TR-FRET); type: biochemical; conditions: read-out: JAK 2 JH1 IC50
Sequence of JAK2 JH1 kinase (O60674 849-1124 limits assumed): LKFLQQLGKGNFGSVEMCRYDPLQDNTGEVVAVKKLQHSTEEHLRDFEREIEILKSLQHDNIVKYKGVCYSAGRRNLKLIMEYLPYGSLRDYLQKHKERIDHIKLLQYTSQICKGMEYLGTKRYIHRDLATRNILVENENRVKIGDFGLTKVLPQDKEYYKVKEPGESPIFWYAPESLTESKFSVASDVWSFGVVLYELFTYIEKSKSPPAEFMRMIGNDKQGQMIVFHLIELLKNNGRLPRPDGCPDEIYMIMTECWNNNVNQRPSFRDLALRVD

TYK2 JH1 kinase = molecular target: T2, TYK2 JH1 kinase (Homo sapiens, UniProt P29597); test: TYK2 JH1 enzyme assay in vitro (TR-FRET); type: biochemical
T2 sequence (P29597 897-1176 limits assumed): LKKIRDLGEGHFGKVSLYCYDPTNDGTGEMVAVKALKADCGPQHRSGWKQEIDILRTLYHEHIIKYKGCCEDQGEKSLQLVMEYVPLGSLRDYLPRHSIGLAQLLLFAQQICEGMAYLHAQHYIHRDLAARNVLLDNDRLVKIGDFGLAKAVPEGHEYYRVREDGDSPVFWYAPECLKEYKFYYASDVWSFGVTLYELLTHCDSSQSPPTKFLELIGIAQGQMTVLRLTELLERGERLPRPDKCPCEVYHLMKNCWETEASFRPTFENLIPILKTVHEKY

Sequence of JAK3 JH1 kinase (P52333 822-1111 limits assumed): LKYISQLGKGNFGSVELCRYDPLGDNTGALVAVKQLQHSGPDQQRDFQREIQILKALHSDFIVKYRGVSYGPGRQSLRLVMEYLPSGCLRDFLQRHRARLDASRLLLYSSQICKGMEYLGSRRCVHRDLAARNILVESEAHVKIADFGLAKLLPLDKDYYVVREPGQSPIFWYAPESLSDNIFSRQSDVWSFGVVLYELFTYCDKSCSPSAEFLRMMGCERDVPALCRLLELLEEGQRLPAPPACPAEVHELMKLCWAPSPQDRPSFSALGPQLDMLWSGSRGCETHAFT

In the case of `[2H]C([2H])([2H])NC(=O)c1nnc(NC(=O)C2CC2)cc1Nc1cccc(-c2ncn(C)n2)c1OC([2H])([2H])[2H]` [BMS-986165, reference compound], the IC50 (JAK3 JH1 kinase) is reported as > 10000 nM, the “Hematology Gran” value (SD rats) is reported as 1.6 ± 0.6 ×10^9/L and the “Hematology Lymph” value (SD rats) is reported as 3.6 ± 0.8 ×10^9/L. For the same molecule, the “Hematology Mono” value (SD rats) was 0.2 ± 0.0 ×10^9/L and the “Percentage reduction in PASI score %” value ([1]; day 7, 10 mg/kg, oral, day 1 to 6) was 30.1** %.
For `[2H]C([2H])([2H])NC(=O)c1nnc(NC(=O)C2CC2)cc1Nc1cccc(C(=O)Nc2ccc(F)cc2)c1OC` [Example 5], the GI50 [2] was 1 to 5 nM, the hERG inhibition (hERG channel) was “no significant inhibition” and the IC50 (TYK2 JH2 pseudokinase) was 0.281 nM. For the same molecule, the IC50 (JAK1 JH2 pseudokinase) was 6.93 nM, the IC50 (JAK1 JH1 kinase) was > 10000 nM and the IC50 (JAK2 JH1 kinase) was > 10000 nM. For the same molecule, the IC50 (JAK3 JH1 kinase; TR-FRET, read-out: JAK 3 JH1 IC50) was > 10000 nM, the IC50 (TYK2 JH1 kinase) was > 10000 nM and the “Improvement of psoriasis symptoms by oral administration” value ([1]; oral gavage, 10 mg/kg, 25 mg/kg, 50 mg/kg, compared with the model group) was “effectively improve psoriasis symptoms”.

Reference: US20260098017A1, “NOVEL AROMATIC RING DERIVATIVE CONTAINING AMIDE SUBSTITUTION AND USE THEREOF” (TIANJIN PHARMACEUTICAL BIOTECHNOLOGY CO., LTD., priority 2022, published 2026)
